Experimental data from patent US4598081A, “1,3-dioxo-1H-benz(de)isoquinoline-2(3H) butyric acid, pharmacologically acceptable salts thereof and compositions containing the same for treatment of diabetes mellitus complications” (Nauchno-Issledovatelsky Institut Endokrinologii I Obmena …, priority 1985, dated 1986).
“Also recorded” adds a separate entry of the source. Structures can show the parent of a compound that is named as a salt.

How the values were obtained:
[1] = test system: basal membrane of the muscle capillaries; experiment: thickness of capillary basal membrane of limb muscles (electron microscope) in rats with alloxan diabetes; type: in vivo, Wistar rats; conditions: for average thickness of the capillary basal membrane of the limb muscles, after administration (M): rats, alloxan diabetes, end of the experiment; for biological activity compared with 1,3-dioxo-1H-benz(de)isoquinoline-2(3H)acetic acid: comparison with prior art compound; for thickness of the basal membrane of the muscle capillaries: after treatment
[2] = test system: white mice, rats, and dogs; experiment: acute ("high") toxicity, symptoms and overall assessment in mice, rats and dogs
Procedure: (§1) Mature animals both male and female, weighting 18 to 22 g (white mice), 180 to 220 g (rats), 11 to 15 kg (dogs) were used for said experiments.
(§2) The drug was introduced in the form of a starch suspension through a gastric tube.
(§3) Each dose being examined was tested on 5-6 animals.
(§4) LD50 determined by the Lichfield and Wilcoxon method, or the Van der Waerden method was used as an index of high toxicity. The animals were kept under observation for 5 days.

White mice = experiment: acute ("high") toxicity, peroral, white mice
Procedure: as §1, §2, §3, §4

aldose reductase = experiment: activity of aldose reductase in tissues of animals with alloxan diabetes; type: in vivo, Wistar rats; conditions: for Activity of aldose reductase: alloxan diabetes + compound; for inhibition of aldose reductase: tissues of the experimental animals
Procedure: (§5) The experiments were conducted on Wistar rats (males) having a weight of 140 to 160 g. The diabetes was caused by a single-time hypodermic injection of alloxan ("Chemapol") in a dose of 150 mg per kg of body weight.
(§6) The glood glucose was determined by applying a glucoseoxidase method, cholesterine by […], aldose reductase by the method of Hayman and Kinoshita, sorbitol by a sorbitol-dehydrogenase method.

[3] = test system: rats having alloxan diabetes; experiment: histological examination and biomicroscopy in rats with prolonged alloxan diabetes; type: in vivo, Wistar rats; conditions: for biochemical and morphological indices: experimental animals
Procedure: The diabetes was caused by a single-time hypodermic injection of alloxan ("Chemapol") in a dose of 150 mg per kg of body weight.
Biomicroscopy of the conjunctiva was effected with the aid of a microscope fitted with a camera and a flash lamp.
For histological examination pieces of the kidney, liver and miocardium were fixed in 10% neutral formaline dehydrated in alcohol, and the paraffin sections were stained with hematoxylin and eosin, and also by the Van-Gizon method.

Dogs [4] = experiment: acute ("high") toxicity, peroral, dogs; conditions: dosage 5500
Procedure: as §1, §2, §3, §4

Rats [5] = experiment: acute ("high") toxicity, peroral, rats
Procedure: as §1, §2, §3, §4

rats, rabbits, and dogs = conditions: in vivo
Procedure: (§7) The experiments were performed on rats, rabbits, and dogs.
(§8) In addition, the action of the proposed drug on the carbohydrate and uropoiesis functions of the liver was also examined.
(§9) The above indices were examined at the beginning of the experiment and then after 1, 2, 3, 4, 5, and 6 months.
(§10) At the end of the experiments there were carried out pathomorphological examinations of the lungs, heart, liver, kidneys, adrenal glands, spleen, lymph nodes, intestine, stomach, pancreas, and thyroid glands.
(§11) On completion of the experiment (six months) the experimental animals were killed: the dogs were killed with thiopental, the rabbits with aeroembolism, and the rats with diethyl ether. Thereafter, the lungs, heart, liver, kidneys, adrenal glands, spleen, lymph nodes, intestine, pancreas and thyroid gland of the killed animals were examined. The material thus obtained was fixed in formole. There were prepared paraffin sections which were then stained with hematoxylin and eosin.

Rats [6] = conditions: rat, in vivo
Procedure: as §7, §8, §9, §10, §11

[7] = test system: sorbitol and fructose in tissues; experiment: sorbitol and fructose in tissues of animals with alloxan diabetes; type: in vivo, Wistar rats; conditions: for Fructose / Sorbitol: alloxan diabetes
Procedure: as §5, §6

[8] = solubility of the acid and its salts; type: physicochemical
Dogs [9] = experiment: chronic toxicity, 6 months peroral, dogs; conditions: in the dogs only
Procedure: as §7, §8, §9, §10, §11

[10] = blood indices (fructose, cholesterin, glucose) in rats with alloxan diabetes; type: in vivo, Wistar rats
Procedure: as §5, §6

With `O=C(O)CN1C(=O)c2cccc3cccc(c23)C1=O` [1,3-dioxo-1H-benz(de)isoquinoline-2(3H)acetic acid, reference compound] as the molecule, how does the “average thickness of the capillary basal membrane of the limb muscles, after administration (M)” value (“average thickness” for short) [1] read?
The value was 112 nanometers.

Which “time until animals laid down on the side, comatose” value ([2]; acute lethal poisoning) does the source give for `O=C(O)CCCN1C(=O)c2cccc3cccc(c23)C1=O` [1,3-dioxo-1H-benz(de)isoquinoline-2(3H)butyric acid] here?
Its value is 6 to 8 h.

And the “time within which the animals died” value ([2]; as a rule, during the first 24-26 hours)?
Its value is 24 to 26 h.

And the “overall acute toxicity assessment” value ([2]; peroral)?
Its value is “substance with low-toxicity”.

What about the “Percentage of animal death (died/in group)” value (from here on “Percentage of animal death”) (White mice; dosage 3750) of the same molecule?
The value was 3/5.

What about the “Percentage of animal death” value (White mice; dosage 4000) of the same molecule?
The value was 2/5.

And the “Percentage of animal death” value (White mice; dosage 4500)?
The value was 4/5.

And the “Percentage of animal death” value (White mice; dosage 4750)?
The value was 5/5.

What about the “Percentage of animal death” value (White mice; dosage 5000) of the same molecule?
Its value is 3/5.

And the “Percentage of animal death” value (White mice; dosage 5250)?
Its value is 5/5.

And the “Activity of aldose reductase” value (aldose reductase; Aorta)?
The value was 7.4 ± 0.8 μmol substruct. per mg of protein.

What about the “Activity of aldose reductase” value (aldose reductase; Cryst. lens) of the same molecule?
Its value is 3.4 ± 0.30 μmol substruct. per mg of protein.

What about the “Activity of aldose reductase” value (aldose reductase; Nerve) of the same molecule?
Its value is 25.5 ± 2.1 μmol substruct. per mg of protein.

And the “inhibition of aldose reductase” value (aldose reductase)?
Its value is “inhibiting properties with respect to aldose reductase; also recorded: inhibitors of aldose reductase”.

What about the kidney histology ([3]; 50 mg per kg per day, 30 days) of the same molecule?
Its kidney histology is “renal glomerulus became more plethoric, the epithelium of the tubules had a more clearly defined boundary, and the protoplasm became less vacuolized and granular”.

What about the liver histology ([3]; 50 mg per kg per day, 30 days) of the same molecule?
The liver histology was “structure of the lobes and radial location of trabeculas in the liver became clearly defined”.

What about the myocardium histology ([3]; 50 mg per kg per day, 30 days) of the same molecule?
The myocardium histology was “Dystrophic lesion in the myocardium was less pronounced”.

And the “vascular pattern of the iris” value ([3]; 50 mg per kg per day, 30 days)?
Its value is “Inflation and convolution of the vessels decreased, and the blood flow became homogeneous”.

And the “biochemical and morphological indices” value [3]?
Its value is “considerable improvements”.

And the “decrease of thickness of the basal membrane of the muscle capillaries” value ([1]; 50 mg per kg per day, 30 days)?
Its value is “almost one and a half times”.

What about the microangiopathy ([1]; 50 mg per kg per day, 30 days) of the same molecule?
Its microangiopathy is “Microangiopathy became less pronounced”.

What about the “biological activity compared with 1,3-dioxo-1H-benz(de)isoquinoline-2(3H)acetic acid” value [1] of the same molecule?
The value was “biologically more active than the prior art compound”.

What about the “thickness of the basal membrane of the muscle capillaries” value ([1]; rats having alloxan diabetes for 12 months) of the same molecule?
Its value is 100-120 nm.

What about the “thickness of the basal membrane of the muscle capillaries” value ([1]; rats having six months alloxan diabetes) of the same molecule?
Its value is 65 nm.

What about the “average thickness” value [1] of the same molecule?
The value was 98.3 nanometers.

What about the “Percentage of animal death” value (Dogs [4]) of the same molecule?
Its value is 3/5.

What about the “Percentage of animal death” value (Rats [5]; dosage 3000) of the same molecule?
Its value is 0/5.

What about the “Percentage of animal death” value (Rats [5]; dosage 3500) of the same molecule?
The value was 2/5.

What about the “Percentage of animal death” value (Rats [5]; dosage 4000) of the same molecule?
Its value is 1/4.

What about the “Percentage of animal death” value (Rats [5]; dosage 4500) of the same molecule?
The value was 3/5.

What about the “Percentage of animal death” value (Rats [5]; dosage 5000) of the same molecule?
The value was 4/7.

And the “Percentage of animal death” value (Rats [5]; dosage 5500)?
Its value is 4/5.

And the “Percentage of animal death” value (Rats [5]; dosage 6000)?
The value was 5/5.

And the “changes in the anthropological data” value (rats, rabbits, and dogs)?
Its value is “no changes in the anthropological data”.

And the “irritating action on the liver and kidneys” value (rats, rabbits, and dogs)?
The value was “slight non-specific irritating action on the liver and kidneys”.

And the “lesions in the liver and kidneys” value (rats, rabbits, and dogs)?
The value was “slight lesions in the liver and kidneys”.

What about the lesions on dissection (rats, rabbits, and dogs) of the same molecule?
Its lesions on dissection is “no lesions”.

What about the “local lesion in the liver and kidneys” value (rats, rabbits, and dogs) of the same molecule?
The value was “slight local lesion in the liver and kidneys”.

What about the “morphological lesions in organs” value (rats, rabbits, and dogs) of the same molecule?
Its value is “did not cause morphological lesions in many organs”.

And the “change in blood-formation function, composition of the peripheric blood and urogenous function of the liver” value (Rats [6])?
The value was “did not lead to a change”.

What about the Fructose ([7]; Cryst. lens) of the same molecule?
The Fructose was 2.85 ± 0.56 μmol per g of tissue.

What about the Sorbitol ([7]; Cryst. lens) of the same molecule?
Its Sorbitol is 7.18 ± 0.65 μmol per g of tissue.

What about the Fructose ([7]; Nerve) of the same molecule?
Its Fructose is 3.25 ± 0.73 μmol per g of tissue.

And the Sorbitol ([7]; Nerve)?
Its Sorbitol is 9.8 ± 0.94 μmol per g of tissue.

What about the “quantity of sorbitol and fructose in the examined tissues” value ([7]; Table 5) of the same molecule?
The value was “has decreased”.

And the solubility in alcohol ([8]; alcohol, when heated)?
Its solubility in alcohol is “soluble”.

And the solubility in dimethyl-formamide ([8]; dimethyl-formamide, when heated)?
Its solubility in dimethyl-formamide is “soluble”.

What about the “solubility in soda and alkali solutions” value ([8]; soda and alkali solutions) of the same molecule?
The value was “soluble in soda and alkali solutions”.

And the solubility in water [8]?
The solubility in water was “water-insoluble”.

What about the “vessel permeability in the renal glomerulus” value (Dogs [9]) of the same molecule?
Its value is “elevated vessel permeability in the renal glomerulus”.

And the “change of the level of glucose (blood)” value [10]?
Its value is “did not change”.

And the “cholesterin (blood)” value ([10]; p<0.005)?
The value was 100±7.1 mg %.

And the “fructose (blood)” value ([10]; p<0.02)?
The value was 2.26±0.16 mg %.

And the “level of glucose (blood)” value ([10]; p<0.5)?
Its value is 340.1±27.8 mg %.

Which results are given for `O=C(O)CCCN1C(=O)c2cccc3cccc(c23)C1=O` [Potassium salt, potassium salt of 1,3-dioxo-1H-benz(de)isoquinoline-2(3H)butyric acid]?
inhibition of aldose reductase (aldose reductase): inhibiting properties with respect to aldose reductase; also recorded: inhibitors of aldose reductase; biochemical and morphological indices [3]: considerable improvements; biological activity compared with 1,3-dioxo-1H-benz(de)isoquinoline-2(3H)acetic acid [1]: biologically more active than the prior art compound; average thickness of the capillary basal membrane of the limb muscles, after administration (M) [1]: 98.6 nanometers; solubility in benzole [8]: insoluble; solubility in ethyl alcohol [8]: soluble; solubility in water [8]: readily soluble

With `O=C(O)CCCN1C(=O)c2cccc3cccc(c23)C1=O` [Sodium salt, sodium salt of 1,3-dioxo-1H-benz(de)isoquinoline-2(3H)butyric acid] as the molecule, how does the “inhibition of aldose reductase” value (aldose reductase) read?
The value was “inhibiting properties with respect to aldose reductase; also recorded: inhibitors of aldose reductase”.

And the “biochemical and morphological indices” value [3]?
The value was “considerable improvements”.

And the “biological activity compared with 1,3-dioxo-1H-benz(de)isoquinoline-2(3H)acetic acid” value [1]?
Its value is “biologically more active than the prior art compound”.

And the “average thickness” value [1]?
The value was 102 nanometers.

And the solubility in benzole [8]?
Its solubility in benzole is “insoluble”.

What about the “solubility in ethyl alcohol” value [8] of the same molecule?
The value was “slightly soluble”.

And the solubility in water [8]?
Its solubility in water is “readily soluble”.
